# Test results from ChEMBL document CHEMBL1201862, “PubChem BioAssay data set” (2004).
# Activity calls are given as the source filed them.
# What was measured:
# [1] = target: Glyceraldehyde-3-phosphate dehydrogenase (Homo sapiens, UniProt P04406)
# [2] = target: T1, Alkaline phosphatase, tissue-nonspecific isozyme (Homo sapiens, UniProt P05186); assay: human TNAP enzyme inhibitors, SAR follow-up, biochemical, luminescent, dose response (AID 1056)
# T1 sequence (P05186 whole entry): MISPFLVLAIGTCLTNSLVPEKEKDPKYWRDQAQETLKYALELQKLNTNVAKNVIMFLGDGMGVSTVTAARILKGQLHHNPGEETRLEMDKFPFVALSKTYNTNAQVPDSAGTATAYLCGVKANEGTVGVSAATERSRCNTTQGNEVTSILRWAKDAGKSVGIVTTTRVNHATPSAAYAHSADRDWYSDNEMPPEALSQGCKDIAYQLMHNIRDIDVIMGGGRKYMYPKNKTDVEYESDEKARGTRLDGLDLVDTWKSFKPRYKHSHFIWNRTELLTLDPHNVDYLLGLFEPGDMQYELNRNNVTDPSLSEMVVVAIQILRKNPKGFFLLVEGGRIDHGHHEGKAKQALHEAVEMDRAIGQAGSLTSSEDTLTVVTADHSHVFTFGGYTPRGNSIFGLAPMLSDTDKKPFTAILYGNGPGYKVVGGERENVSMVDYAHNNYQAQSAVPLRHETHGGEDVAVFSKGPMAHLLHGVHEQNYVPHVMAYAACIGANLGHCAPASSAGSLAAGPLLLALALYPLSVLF
# Bcl-2-like protein 10 = target: T2, Bcl-2-like protein 10 (Homo sapiens, UniProt Q9HD36); assay: displacers of TR3 peptide from Bcl-B, primary screen, selectivity assay for Bfl-1 inhibitor project, biochemical, fluorescence polarization, FITC-TR3 peptide (AID 748);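 note: fluorescence polarization from a fluorescein-labelled TR3 peptide binding purified Bcl-B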
# T2 sequence (Q9HD36 whole entry): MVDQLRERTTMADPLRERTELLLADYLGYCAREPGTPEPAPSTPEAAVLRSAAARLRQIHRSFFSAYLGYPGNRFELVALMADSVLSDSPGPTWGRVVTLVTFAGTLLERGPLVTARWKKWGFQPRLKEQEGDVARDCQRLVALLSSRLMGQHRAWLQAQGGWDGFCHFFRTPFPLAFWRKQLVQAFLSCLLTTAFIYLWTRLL
# Nonstructural protein 1 = Nonstructural protein 1 (Influenza A virus, UniProt Q194T2); type: functional, Influenza A virus (A/California/07/2009(H1N1))
# Chain of Nonstructural protein 1 (Q194T2 whole entry): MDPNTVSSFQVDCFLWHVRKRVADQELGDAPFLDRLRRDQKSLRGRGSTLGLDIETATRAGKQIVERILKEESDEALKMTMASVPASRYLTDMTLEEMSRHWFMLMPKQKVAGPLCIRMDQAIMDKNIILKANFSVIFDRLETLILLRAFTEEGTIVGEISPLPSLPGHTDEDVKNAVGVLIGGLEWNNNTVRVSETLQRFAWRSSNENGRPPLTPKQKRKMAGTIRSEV
# H9c2 = assay: cells; type: functional, cell-based; conditions: Rattus norvegicus, H9c2, Myocardium;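 note: confirmatory concentration-response retest of ultra-high-throughput screening hits for modulation of myocardial damage; cell death induced by hydrogen peroxide oxidative stress; compound pretreatment for 60 min then peroxide exposure for 2 h; potency is for protecting the cells against peroxide damage rather than for killing them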
# [3] = target: T3, RNA-binding protein pos-1 (Caenorhabditis elegans, UniProt G5EF15); assay: inhibitors of POS-1/mex-3 RNA binding, dose response, biochemical, fluorescence polarization (AID 1964);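 note: purified POS-1 fused to maltose binding protein made in E. coli; potency of compounds blocking POS-1 binding to fluorescent RNA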
# T3 sequence (G5EF15 whole entry): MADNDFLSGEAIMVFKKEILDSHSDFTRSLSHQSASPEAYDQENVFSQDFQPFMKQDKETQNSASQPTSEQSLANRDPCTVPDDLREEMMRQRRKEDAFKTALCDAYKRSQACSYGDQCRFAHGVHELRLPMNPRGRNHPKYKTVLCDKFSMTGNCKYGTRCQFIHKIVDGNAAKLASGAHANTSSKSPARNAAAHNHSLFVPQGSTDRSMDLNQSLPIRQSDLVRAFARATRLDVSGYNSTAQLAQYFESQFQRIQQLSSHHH
# [4] = target: T4, Zinc finger protein mex-5 (Caenorhabditis elegans, UniProt Q9XUB2); assay: MEX-5/TCR-2 RNA interaction inhibitors, dose response, biochemical, C. elegans, fluorescence polarization (AID 1960)
# T4 sequence (Q9XUB2 whole entry): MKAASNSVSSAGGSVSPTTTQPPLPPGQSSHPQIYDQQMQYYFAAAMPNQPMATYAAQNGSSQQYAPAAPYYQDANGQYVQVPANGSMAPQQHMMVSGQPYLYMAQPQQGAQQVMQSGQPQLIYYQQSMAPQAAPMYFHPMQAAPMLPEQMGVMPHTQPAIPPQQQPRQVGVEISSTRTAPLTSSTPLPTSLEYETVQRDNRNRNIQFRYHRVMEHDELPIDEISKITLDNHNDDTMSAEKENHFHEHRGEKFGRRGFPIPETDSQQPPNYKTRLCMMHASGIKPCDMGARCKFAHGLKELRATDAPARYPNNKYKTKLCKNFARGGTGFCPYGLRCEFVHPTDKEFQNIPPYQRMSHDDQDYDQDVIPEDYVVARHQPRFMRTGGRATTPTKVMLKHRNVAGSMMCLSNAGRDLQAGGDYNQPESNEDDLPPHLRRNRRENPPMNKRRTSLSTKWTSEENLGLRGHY
# [5] = target: Glucose-6-phosphate 1-dehydrogenase (Homo sapiens, UniProt P11413); assay: human G6PD enzyme inhibitors, dose response, selectivity assay for P. falciparum G6PD inhibitor project, biochemical, fluorescence (AID 504792); type: functional
# Chain of Glucose-6-phosphate 1-dehydrogenase (P11413 whole entry): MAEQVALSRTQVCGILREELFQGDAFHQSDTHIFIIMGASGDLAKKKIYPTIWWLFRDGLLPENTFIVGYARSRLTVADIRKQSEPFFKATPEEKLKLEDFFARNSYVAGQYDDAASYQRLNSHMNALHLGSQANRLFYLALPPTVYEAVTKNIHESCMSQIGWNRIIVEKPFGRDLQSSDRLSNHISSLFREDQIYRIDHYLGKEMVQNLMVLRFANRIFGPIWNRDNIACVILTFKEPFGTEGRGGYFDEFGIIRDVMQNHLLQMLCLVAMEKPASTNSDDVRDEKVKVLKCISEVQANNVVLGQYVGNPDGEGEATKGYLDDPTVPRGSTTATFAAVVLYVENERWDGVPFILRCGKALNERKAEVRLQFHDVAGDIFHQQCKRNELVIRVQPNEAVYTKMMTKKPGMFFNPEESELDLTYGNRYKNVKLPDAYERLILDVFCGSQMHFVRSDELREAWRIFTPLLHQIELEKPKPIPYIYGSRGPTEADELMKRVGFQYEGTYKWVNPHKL
# Hexokinase HKDC1 = target: T5, Hexokinase HKDC1 (Homo sapiens, UniProt Q2TB90); assay: HKDC1 hexokinase inhibitors, dose response, biochemical, W721R variant (AID 504729); type: functional
# T5 sequence (Q2TB90 whole entry): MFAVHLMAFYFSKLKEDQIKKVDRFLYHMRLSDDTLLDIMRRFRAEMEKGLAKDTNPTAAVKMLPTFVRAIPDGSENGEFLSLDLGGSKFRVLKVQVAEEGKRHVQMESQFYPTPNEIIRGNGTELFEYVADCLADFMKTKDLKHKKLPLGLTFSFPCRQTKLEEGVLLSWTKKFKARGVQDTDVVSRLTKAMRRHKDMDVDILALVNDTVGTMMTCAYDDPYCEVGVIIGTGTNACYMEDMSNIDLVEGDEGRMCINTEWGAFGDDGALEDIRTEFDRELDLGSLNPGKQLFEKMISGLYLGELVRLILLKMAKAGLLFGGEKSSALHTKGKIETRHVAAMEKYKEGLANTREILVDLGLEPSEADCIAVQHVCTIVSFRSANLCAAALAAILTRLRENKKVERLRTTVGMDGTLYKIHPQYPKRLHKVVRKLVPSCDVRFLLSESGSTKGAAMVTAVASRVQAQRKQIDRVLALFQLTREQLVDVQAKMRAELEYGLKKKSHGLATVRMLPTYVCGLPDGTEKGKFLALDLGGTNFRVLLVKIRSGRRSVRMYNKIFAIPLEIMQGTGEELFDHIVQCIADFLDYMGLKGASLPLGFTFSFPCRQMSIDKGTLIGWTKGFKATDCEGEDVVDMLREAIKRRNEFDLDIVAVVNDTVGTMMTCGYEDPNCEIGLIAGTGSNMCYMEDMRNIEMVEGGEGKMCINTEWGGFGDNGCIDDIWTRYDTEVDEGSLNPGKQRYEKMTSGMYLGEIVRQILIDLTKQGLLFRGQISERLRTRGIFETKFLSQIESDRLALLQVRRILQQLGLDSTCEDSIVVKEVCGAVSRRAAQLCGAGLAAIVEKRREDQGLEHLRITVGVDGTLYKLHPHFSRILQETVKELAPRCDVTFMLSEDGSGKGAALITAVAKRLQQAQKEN
# [6] = target: T6, Apoptotic protease-activating factor 1 (Homo sapiens, UniProt O14727); type: functional
# T6 sequence (O14727 whole entry): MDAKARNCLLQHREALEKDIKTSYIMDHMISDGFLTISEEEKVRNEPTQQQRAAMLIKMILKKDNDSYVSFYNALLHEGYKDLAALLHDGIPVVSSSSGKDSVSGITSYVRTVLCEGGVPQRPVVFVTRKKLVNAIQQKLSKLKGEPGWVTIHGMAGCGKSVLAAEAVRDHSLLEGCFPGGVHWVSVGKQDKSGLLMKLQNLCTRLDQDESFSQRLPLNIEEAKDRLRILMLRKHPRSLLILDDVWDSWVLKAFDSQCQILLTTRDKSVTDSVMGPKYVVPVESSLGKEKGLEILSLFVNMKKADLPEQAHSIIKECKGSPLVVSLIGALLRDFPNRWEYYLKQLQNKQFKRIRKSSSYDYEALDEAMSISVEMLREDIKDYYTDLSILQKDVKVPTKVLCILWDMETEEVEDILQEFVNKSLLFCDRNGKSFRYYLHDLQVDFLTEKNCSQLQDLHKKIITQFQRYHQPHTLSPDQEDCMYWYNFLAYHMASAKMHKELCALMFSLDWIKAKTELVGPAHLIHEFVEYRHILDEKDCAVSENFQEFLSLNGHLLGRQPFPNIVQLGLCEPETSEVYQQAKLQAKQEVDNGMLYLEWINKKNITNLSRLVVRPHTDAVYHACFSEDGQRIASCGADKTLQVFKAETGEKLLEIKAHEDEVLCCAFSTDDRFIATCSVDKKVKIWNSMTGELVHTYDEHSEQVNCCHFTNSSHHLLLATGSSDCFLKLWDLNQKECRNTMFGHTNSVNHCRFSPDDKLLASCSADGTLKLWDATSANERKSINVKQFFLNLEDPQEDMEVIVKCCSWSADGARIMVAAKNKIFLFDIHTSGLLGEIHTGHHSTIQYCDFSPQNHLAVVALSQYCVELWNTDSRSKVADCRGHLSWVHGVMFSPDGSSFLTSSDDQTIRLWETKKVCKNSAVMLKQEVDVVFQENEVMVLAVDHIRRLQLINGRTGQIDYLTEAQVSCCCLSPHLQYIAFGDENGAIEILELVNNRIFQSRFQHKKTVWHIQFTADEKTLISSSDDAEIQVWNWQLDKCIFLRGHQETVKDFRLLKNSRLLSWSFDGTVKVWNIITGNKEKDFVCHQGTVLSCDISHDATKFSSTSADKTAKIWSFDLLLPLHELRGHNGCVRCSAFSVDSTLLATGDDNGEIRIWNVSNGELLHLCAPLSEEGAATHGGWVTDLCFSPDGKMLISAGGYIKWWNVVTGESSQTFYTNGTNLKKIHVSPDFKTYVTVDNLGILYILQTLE
# [7] = target: T7, Ubiquitin-conjugating enzyme E2 N (Homo sapiens, UniProt P61088); type: functional;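 note: Dose-response confirmation in a TR-FRET assay detecting UBC13-driven polyubiquitin chain formation, inhibition measured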
# T7 sequence (P61088 whole entry): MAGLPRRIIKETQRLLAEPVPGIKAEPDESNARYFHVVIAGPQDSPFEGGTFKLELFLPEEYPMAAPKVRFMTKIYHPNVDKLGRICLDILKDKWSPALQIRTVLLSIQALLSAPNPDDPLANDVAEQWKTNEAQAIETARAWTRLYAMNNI
# [8] = tested on: Streptococcus sp. 'group A'; assay: growth inhibition of control SK(-) GAS strain, dose response, counter-screen for streptokinase expression inhibitor project, luminescence, kanamycin, BacTiterGlo, confirmation (AID 1900); type: functional, organism-based
# Streptokinase A = target: T8, Streptokinase A (Streptococcus pyogenes serotype M1, UniProt P10520); assay: S. pyogenes streptokinase expression inhibitors, potency, dose response, plasminogen activation absorbance, OD405 (AID 1914); type: functional, Streptococcus pyogenes M1 GAS;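 note: secreted streptokinase activity via plasminogen activation per viability signal from cell pellet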
# T8 sequence (P10520 whole entry): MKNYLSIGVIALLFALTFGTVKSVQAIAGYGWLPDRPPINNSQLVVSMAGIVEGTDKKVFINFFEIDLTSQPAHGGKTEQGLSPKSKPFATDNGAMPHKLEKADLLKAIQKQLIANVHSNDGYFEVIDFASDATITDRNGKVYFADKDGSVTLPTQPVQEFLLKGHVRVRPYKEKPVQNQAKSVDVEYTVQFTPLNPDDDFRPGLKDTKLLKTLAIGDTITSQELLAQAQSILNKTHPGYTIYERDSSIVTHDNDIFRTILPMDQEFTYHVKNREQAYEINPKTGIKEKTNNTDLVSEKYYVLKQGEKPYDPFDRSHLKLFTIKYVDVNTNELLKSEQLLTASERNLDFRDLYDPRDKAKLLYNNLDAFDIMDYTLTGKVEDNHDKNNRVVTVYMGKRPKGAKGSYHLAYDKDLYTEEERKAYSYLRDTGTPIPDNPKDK
# Streptococcus = assay: Group A Streptococcus viability loss, dose response, counter-screen for streptokinase expression inhibitor project, luminescence, BacTiterGlo (AID 1915); type: functional, organism-based;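 note: potency for reduction of bacterial viability or growth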
# [9] = target: DNA dC->dU-editing enzyme APOBEC-3A (Homo sapiens, UniProt P31941); assay: APOBEC3A DNA deaminase inhibitors, dose response, biochemical (AID 504722); type: functional
# Chain of DNA dC->dU-editing enzyme APOBEC-3A (P31941 whole entry): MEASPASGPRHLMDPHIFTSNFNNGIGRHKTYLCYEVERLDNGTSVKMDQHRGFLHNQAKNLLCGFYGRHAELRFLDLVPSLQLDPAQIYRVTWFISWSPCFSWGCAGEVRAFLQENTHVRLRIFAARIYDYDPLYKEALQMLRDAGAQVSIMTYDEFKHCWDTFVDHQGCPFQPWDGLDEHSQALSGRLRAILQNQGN
# [10] = target: Eukaryotic translation initiation factor 4E (Mus musculus, UniProt P63073); assay: eIF4E–eIF4G protein interaction inhibitors, dose response, biochemical, TR-FRET (AID 855); type: functional;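 note: potency for disrupting eIF4E binding to eIF4GI seen as loss of FRET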
# Chain of Eukaryotic translation initiation factor 4E (P63073 whole entry): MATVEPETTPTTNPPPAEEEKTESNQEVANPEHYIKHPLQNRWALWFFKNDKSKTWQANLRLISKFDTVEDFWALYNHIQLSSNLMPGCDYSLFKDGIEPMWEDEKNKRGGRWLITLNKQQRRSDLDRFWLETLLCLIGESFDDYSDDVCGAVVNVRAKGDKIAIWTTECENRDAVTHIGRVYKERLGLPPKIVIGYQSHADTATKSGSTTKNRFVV
# [11] = target: DNA dC->dU-editing enzyme APOBEC-3G (Homo sapiens, UniProt Q9HC16); assay: Dose Response confirmation of small molecule APOBEC3G DNA Deaminase Inhibitors via a fluorescence-based single-stranded DNA deaminase assay. [Related pubchem assays (depositor defined):AID493012, AID493028]; type: functional
# Chain of DNA dC->dU-editing enzyme APOBEC-3G (Q9HC16 whole entry): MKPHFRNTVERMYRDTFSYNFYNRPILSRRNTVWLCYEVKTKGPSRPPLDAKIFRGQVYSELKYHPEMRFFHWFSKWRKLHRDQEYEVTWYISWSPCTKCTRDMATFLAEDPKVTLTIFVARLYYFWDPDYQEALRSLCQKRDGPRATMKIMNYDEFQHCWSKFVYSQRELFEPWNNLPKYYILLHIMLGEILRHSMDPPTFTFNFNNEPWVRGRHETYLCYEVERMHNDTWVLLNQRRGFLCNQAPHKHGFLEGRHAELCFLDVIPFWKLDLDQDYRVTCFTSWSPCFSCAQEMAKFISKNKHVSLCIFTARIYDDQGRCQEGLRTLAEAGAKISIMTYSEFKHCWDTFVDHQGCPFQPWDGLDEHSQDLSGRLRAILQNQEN
# Chain of Glyceraldehyde-3-phosphate dehydrogenase (P04406 whole entry): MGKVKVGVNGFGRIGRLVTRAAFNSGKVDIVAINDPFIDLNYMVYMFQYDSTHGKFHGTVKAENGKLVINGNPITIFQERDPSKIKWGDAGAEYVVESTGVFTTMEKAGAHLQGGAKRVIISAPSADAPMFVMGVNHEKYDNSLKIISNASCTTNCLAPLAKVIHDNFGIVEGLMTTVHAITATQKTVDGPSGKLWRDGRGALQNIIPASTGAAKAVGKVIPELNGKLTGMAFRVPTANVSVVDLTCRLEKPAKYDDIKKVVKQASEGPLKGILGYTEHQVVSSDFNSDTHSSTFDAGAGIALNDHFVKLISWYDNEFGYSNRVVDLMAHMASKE
smiles,measurement,setting,value
O=S(=O)(Nc1ccc2ccccc2c1)c1cc(Cl)ccc1F,IC50,[1],> 10 µM (inconclusive)
same,IC50,[2],> 10 µM (inactive)
C[C@@H](C(=O)Nc1nc(-c2ccccn2)cs1)N1C(=O)C2CCCCC2C1=O (some centres not stated),IC50,Bcl-2-like protein 10,96 µM (inactive)
same,IC50,Nonstructural protein 1,8.38 µM (active)
same,IC50,H9c2,8.43 µM (active)
Cc1ccccc1N1C(=O)c2sc3nc4c(c(=O)n3c2C1=O)CCC4,IC50,Bcl-2-like protein 10,54.9 µM (inactive)
C=CCN1C=C2C(=O)C(C)(OC(=O)CCC(=O)OC)C(=O)C(Br)=C2C=C1c1ccc(OC)cc1 (configuration not stated),EC50,[3],50.2 µM (active)
same,EC50,[4],42.8 µM (active)
same,IC50,[5],29.9 µM (inactive)
same,IC50,Hexokinase HKDC1,24.6 µM (inactive)
same,IC50,[6],32.6 µM (active)
CC(C)CC(C(=O)NC(C)(C)C)N(Cc1cccs1)C(=O)c1snc(C(N)=O)c1N (configuration not stated),IC50,[7],> 20 µM (inactive)
NC(=S)N=Nc1c(O)n(Cc2ccc(F)cc2)c2ccccc12,IC50,[7],> 20 µM (inactive)
COC(=O)c1ccc(CSc2nnc(S)s2)o1,EC50,[8],5.69 µM (active)
same,EC50,Streptokinase A,5.61 µM (active)
same,EC50,Streptococcus,9.6 µM (active)
same,IC50,[9],> 100 µM (inactive)
same,IC50,[10],> 64 µM (inactive)
same,IC50,[11],5.99 µM (active)
CC(C)CNC(=O)c1cc(-c2cc(F)c(Cl)cc2Cl)n[nH]1,IC50,[1],> 10 µM (inconclusive)
same,IC50,[2],0.27 µM (active)
CC(C)Cn1c(S)nnc1-c1cccc(S(=O)(=O)N2CCOCC2)c1,IC50,[9],> 100 µM (inactive)
same,IC50,[11],5.37 µM (active)
Sc1nnc(-c2ccccn2)n1/N=C/c1c(Cl)cccc1Cl,IC50,[9],> 100 µM (inactive)
same,IC50,[11],4.67 µM (active)
COc1ccc(OC)c(CNc2cnc3ccccc3c2)c1,IC50,[1],> 100 µM (not active)
same,IC50,[2],> 100 µM (inactive)
